{
  "source": "patent US11259522B2",
  "about": "“Control of resistant pests” (priority 2017, dated 2022)",
  "format_in_all_cases": "in vivo",
  "key": {"[1]": {"system": "Rhipicephalus microplus larvae, multi-resistant Tiaro reference strain", "assay": "Larval packet test (LPT), cattle tick larvae, multi-resistant strain", "settings": "for LC50 (ppm) / LC99 (ppm): Tiaro, Probit analysis", "procedure": "Filter papers (75 mm×85 mm Whatman® No. 541), with grid patterns, were impregnated on ½ of the paper with 225 μL of each solution using a micro-pipette and immediately folded in half, enveloped in polyethylene plastic and sealed with 3 bulldog clips. The impregnated papers were kept at room temperature on aluminium trays for a minimum of 60 minutes to allow for dispersal across the grid pattern of the paper prior to aliquoting of larvae. The packets were prepared in duplicate for each concentration, including the negative control.\nAliquots of approximately 100 larvae were placed into each packet using plastic disposable forceps and the packets resealed and incubated and 27° C. and 85% relative humidity (RH).\nAfter 24 hours, the larval packets were opened and the numbers of dead and live larvae were counted under a magnification lamp. Percentage mortality was calculated and, where applicable, corrected using Abbott's Formula (Abbott, 1925, J. Economic Entomology, 18:256-257): […]\nLC50 and LC99 values were determined by Probit mortality vs log concentration analysis. Probit values were derived from “Transformation of Percentages to Probit's Tables” published by Fisher R. A. and Yates F. (1938).\nThe LPT Assay of Example 1 was repeated using a narrow range of concentrations, 1 in 2 series, of flavesone to determine LC50 and LC99 values against the susceptible NRFS and the multi-resistant Tiaro reference strain.\nThe Tiaro strain of R. microplus comprises of about 30% fluazuron, 60.6% cypermethrin (SP), 57.6% flumethrin (SP), 16.2% amitraz (amidine), 11.3% DDT, 9.3% chlorpyrifos (OP) and 2.4% dieldrin resistance [2014 acaricide resistance profiling].\nThe stock solution of flavesone (100,000 ppm) was diluted 1 in 10 with olive oil (1 mL to 9 mL diluent) to give 10,000 ppm, which was then further diluted 1 in 2 in series (5 mL to 5 mL diluent) to give 5,000 ppm, 2,500 ppm, 1,250 ppm, 625 ppm, 312.5 ppm and 156.25 ppm concentrations.\nFor the preparation of the positive control, cypermethrin, a stock solution of a concentration of 10,000 ppm was prepared in 2:1 trichloroethylene (TCE)/olive oil as the solvent ([…] cypermethrin, 94.8% purity, to 10 mL solvent) and then further diluted 1 in 2 in series (5 mL to 5 mL solvent) to also give 5,000 ppm, 2,500 ppm, 1,250 ppm, 625 ppm, 312.5 ppm and 156.25 ppm.\nThe flavesone papers were prepared as in Example 1.\nThe cypermethrin papers were impregnated with 670 μL of each solution using a micro-pipette and hung on a rack in a fume-hood to allow papers to dry (evaporation of TCE) for a minimum of 60 minutes. The papers were then folded in half and sealed with three bulldog clips, placed on aluminium trays prior to aliquoting the larvae. All packets were prepared in duplicate.\nA dose-response relationship was determined at 24 hours contact exposure.\nConcentrations of 1,250 ppm, 625 ppm and 312.5 ppm flavesone concentrations prepared for Example 3 were used on the same day of preparation. Duplicate papers were prepared for both the NRFS and Tiaro strains (including negative controls) as described in Example 2.\nMortality was assessed at 48 hours and LC50 and LC99 values were determined by Probit mortality vs log concentration analysis."}, "[2]": {"system": "Halotydeus destructor resistant population (synthetic pyrethroid resistance)", "assay": "Coated plastic vial bioassay, redlegged earth mite, resistant population", "procedure": "The test compositions included 0.1% Tween 20 non-ionic surfactant to aid the spread of insecticides when coating plastic vials. This concentration of Tween 20 has been previously shown to have no toxic effect on H. destructor. For each insecticide concentration tested, 3, 10, 30, 100, 300, 1000, 3000 and 10000 mg a.i./L (ppm), approximately 10 mL of solution was poured into a 15 mL plastic vial and swirled to ensure a complete coating, with excess liquid removed. Eight vials were coated per concentration and were left to dry overnight. Control vials were treated in the same way but with water used in place of test composition.\nEight susceptible H. destructor mites were then placed into each vial along with a leaf of common vetch (Vicia sativa). The leaf was added to provide food and increase humidity. Vials were then sealed with a lid and placed at 18° C. After 4, 6, 8 and 24 hours of exposure, the mites were scored as alive (moving freely), incapacitated (inhibited movement), or dead (no movement over a 5 second period).\nThe resistant population of H. destructor was collected from a lucerne paddock in the Upper South-East district of South Australia, where resistance to synthetic pyrethroids was confirmed in late 2016.\nThe data produced in the assays were assessed for concentrations that caused 50, 90 and 99% mortality (lethal concentration, LC), together with 95% confidence intervals (CIs) and were estimated from observations of mortality after 24 hours exposure using a binomial logistic regression (Robertson & Preisler, 1992, Pesticide Bioassays with Arthropods. CRC: Boca Raton; Venables & Ripley, 2002, Modern Applied Statistics with S. Springer: New York). Population differences were tested by comparing the change in model deviance with and without the population factor (different regression intercepts for each population). Differences in regression slopes between populations were tested by comparing the change in model deviance with and without the population×dose interaction term. The resistance ratio of the insecticide-resistant population was estimated as the ratio of its LC50 to that of the susceptible population. All analyses were performed using R 3.3. (R Core Team 2017, R: A language and environment for statistical computing. R Foundation for Statistical Computing, Vienna, Austria. http://www.R-project.org)."}, "[3]": {"system": "Sitophilus oryzae susceptible strain LS2", "assay": "Grain protectant bioassay on treated wheat, S. oryzae susceptible", "settings": "for Progeny reduction (%): vs untreated control"}, "[4]": {"settings": "Rhipicephalus microplus, Example 2, 24 hours"}, "[5]": {"settings": "Rhipicephalus microplus, Example 4, 48 hours"}, "[6]": {"settings": "Resistant population, 24 hours exposure"}},
  "data": [
    {"smiles": "CC(C)C(=O)C1C(=O)C(C)(C)C(=O)C(C)(C)C1=O", "note": "[Flavesone, 1-isobutyroyl-3,3,5,5-tetramethylcyclohexane-2,4,6-trione]", "values": [
      {"measurement": "cross-resistance, comparing LC50 and LC99 data between NRFS and Tiaro strains", "setting": "[1]; Example 2, 24 hours", "value": "no evidence of cross-resistance"},
      {"measurement": "LC50 (ppm)", "setting": "[1]; Example 2, 24 hours", "value": 647, "unit": "ppm"},
      {"measurement": "LC99 (ppm)", "setting": "[1]; Example 2, 24 hours", "value": 1039, "unit": "ppm"},
      {"measurement": "LC50 (ppm)", "setting": "[1]; Example 4, 48 hours", "value": 521, "unit": "ppm"},
      {"measurement": "LC99 (ppm)", "setting": "[1]; Example 4, 48 hours", "value": 887, "unit": "ppm"},
      {"measurement": "mortality at 2.5 ppm", "setting": "[1]; Rhipicephalus microplus, Example 2, 2.500 ppm, 24 hours", "value": 100, "unit": "%"},
      {"measurement": "mortality at 156.25 ppm", "setting": "[1]; Rhipicephalus microplus, Example 2, 156.25 ppm, 24 hours", "value": 0, "unit": "%"},
      {"measurement": "mortality at 312.5 ppm", "setting": "[1]; [4]", "value": 0.13, "unit": "%"},
      {"measurement": "mortality at 625 ppm", "setting": "[1]; [4]", "value": 12.8, "unit": "%"},
      {"measurement": "mortality at 1250 ppm", "setting": "[1]; Rhipicephalus microplus, Example 2, 1,250 ppm, 24 hours", "value": 100, "unit": "%"},
      {"measurement": "mortality at 5000 ppm", "setting": "[1]; Rhipicephalus microplus, Example 2, 5,000 ppm, 24 hours", "value": 100, "unit": "%"},
      {"measurement": "mortality at 10000 ppm", "setting": "[1]; Rhipicephalus microplus, Example 2, 10,000 ppm, 24 hours", "value": 100, "unit": "%"},
      {"measurement": "mortality at 312.5 ppm", "setting": "[1]; [5]", "value": 0.97, "unit": "%"},
      {"measurement": "mortality at 625 ppm", "setting": "[1]; [5]", "value": 84.1, "unit": "%"},
      {"measurement": "mortality at 1250 ppm", "setting": "[1]; Rhipicephalus microplus, Example 4, 1250 ppm, 48 hours", "value": 100, "unit": "%"},
      {"measurement": "LC50", "setting": "[2]; Halotydeus destructor, 24 h, Resistant population, 24 hours exposure, read-out: LC50 (mg a.i./L)", "value": 34.2, "unit": "µg/mL"},
      {"measurement": "LC50 (mg a.i./L)", "setting": "[2]; [6]", "value": 34.22, "unit": "mg a.i./L"},
      {"measurement": "LC90 (mg a.i./L)", "setting": "[2]; [6]", "value": 117.89, "unit": "mg a.i./L"},
      {"measurement": "LC99 (mg a.i./L)", "setting": "[2]; [6]", "value": 454.76, "unit": "mg a.i./L"},
      {"measurement": "concentration causing 50% mortality", "setting": "[2]; both susceptible and insecticide-resistant populations, 24 hours", "value": "34−40 mg a.i./L"},
      {"measurement": "Live adult progeny", "setting": "[3]; 25 mg/kg, mean ± SE", "value": "735.3 ± 60.6"},
      {"measurement": "Live adult progeny", "setting": "[3]; 60 mg/kg, mean ± SE", "value": "355.3 ± 64.7"},
      {"measurement": "Progeny reduction (%)", "setting": "[3]; 60 mg/kg", "value": 50.3, "unit": "%"},
      {"measurement": "Progeny reduction (%)", "setting": "[3]; 60 mg/kg, listed as flavesone", "value": 50, "unit": "%"},
      {"measurement": "mortality at 25 mg/kg", "setting": "[3]; Sitophilus oryzae, 336 h, 25 mg/kg, 2 weeks, mean ± SE, read-out: Adult mortality (%)", "value": "1.3 ± 0.7", "unit": "%"},
      {"measurement": "mortality at 60 mg/kg", "setting": "[3]; Sitophilus oryzae, 336 h, 60 mg/kg, 2 weeks, mean ± SE, read-out: Adult mortality (%)", "value": "4 ± 1.2", "unit": "%"}
    ]}
  ]
}
